Results as given in patent publication US8901118B2, “Compounds and methods for kinase modulation, and indications therefor” (Plexxikon Inc., priority 2010, dated 2014).
pIC50: −log10 of the molar value.

Tests used:
Fms kinase = Fms kinase (Homo sapiens, UniProt P07333); assay: Fms kinase biochemical activity assay (AlphaScreen, biotin-(E4Y)10 phosphorylation); settings: 100 μM ATP; read-out: Biochemical Inhibition IC50 Fms
Summary of the method: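 Fms kinase (1 ng/well) phosphorylating 30 nM biotin-(E4Y)10 with 100 μM ATP in 25 mM Hepes pH 7.5, MgCl2/MnCl2, 5% DMSO, 20 min at 30 °C. Phosphotyrosine detected by AlphaScreen streptavidin donor and PY20 acceptor beads; IC50 from signal versus compound concentration.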

CYP3A4(BQ) = CYP3A4(BQ) (Homo sapiens, UniProt P08684); assay: CYP3A4(BQ) inhibition; format: in vitro ADME; settings: CYP3A4, substrate BQ; read-out: Cyp IC50 3A4(BQ)
Summary of the method: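 Inhibition of human CYP3A4 (BQ substrate) was measured by fluorescence, since blocking metabolism of a known substrate lowers the fluorescent product signal. Compounds dissolved in DMSO at 100 mM were diluted into acetonitrile and then into NADPH regeneration cofactor mix, serially diluted 1:1 across 10 points, and preincubated in 384 well plates for 10 minutes at 37° C.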

CYP2D6 = CYP2D6 (Homo sapiens, UniProt P10635); assay: CYP2D6 inhibition (fluorescent substrate AMMC); format: in vitro ADME; settings: read-out: Cyp IC50 2D6
Summary of the method: (§1)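 Inhibition is measured as the drop in fluorescent metabolite formation across a 10-point compound titration with NADPH regeneration at 37 °C. Incubation lasts 15 min for CYP1A2, 45 min for CYP2C9 and 30 min for CYP2C19 and CYP2D6.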

CYP1A2 = molecular target: T1, CYP1A2 (Homo sapiens, UniProt P05177); assay: CYP1A2 inhibition (fluorescent substrate CEC); format: in vitro ADME; settings: read-out: Cyp IC50 1A2
T1 sequence (P05177 1-516): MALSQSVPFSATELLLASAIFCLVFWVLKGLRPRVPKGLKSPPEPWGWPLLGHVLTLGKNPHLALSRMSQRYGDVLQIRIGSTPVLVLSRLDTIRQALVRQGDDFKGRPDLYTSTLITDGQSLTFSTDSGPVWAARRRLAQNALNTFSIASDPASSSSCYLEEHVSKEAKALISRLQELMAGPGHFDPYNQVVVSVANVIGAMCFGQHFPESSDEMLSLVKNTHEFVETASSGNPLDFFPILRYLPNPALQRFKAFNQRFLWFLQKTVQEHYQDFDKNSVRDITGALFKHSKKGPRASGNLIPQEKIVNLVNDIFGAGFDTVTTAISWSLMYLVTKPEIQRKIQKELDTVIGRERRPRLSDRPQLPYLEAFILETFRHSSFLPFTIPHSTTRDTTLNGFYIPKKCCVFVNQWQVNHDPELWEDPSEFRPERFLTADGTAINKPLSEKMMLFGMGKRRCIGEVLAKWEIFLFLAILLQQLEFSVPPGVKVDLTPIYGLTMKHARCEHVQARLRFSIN
Summary of the method: as §1

[1] = Relative solubility by turbidity in aqueous buffers (pH 1.5, 4.5, 6.8, 7.4); format: physicochemical; settings: for turbidity threshold (L, M, H) 1.4: pH 1.5 (SGF); for turbidity threshold (L, M, H) 4.5: pH 4.5 (SIF); for turbidity threshold (L, M, H) 6.8: pH 6.8 (SIF); for turbidity threshold (L, M, H) 7.4: pH 7.4 (HEPES)
Summary of the method: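 Twofold DMSO dilutions of a 25 mM stock were spiked into SGF (0.5M NaCl, pH 1.5), SIF (0.05M NaH2PO4, pH 4.5 and 6.8) or HEPES buffer (10 mM HEPES, 150 mM NaCl, pH 7.4). Absorbance was read at 490, 535 and 650 nm. The endpoint is the concentration crossing O.D. 0.01, averaged across wavelengths.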

Sequence of Fms kinase (P07333 20-972): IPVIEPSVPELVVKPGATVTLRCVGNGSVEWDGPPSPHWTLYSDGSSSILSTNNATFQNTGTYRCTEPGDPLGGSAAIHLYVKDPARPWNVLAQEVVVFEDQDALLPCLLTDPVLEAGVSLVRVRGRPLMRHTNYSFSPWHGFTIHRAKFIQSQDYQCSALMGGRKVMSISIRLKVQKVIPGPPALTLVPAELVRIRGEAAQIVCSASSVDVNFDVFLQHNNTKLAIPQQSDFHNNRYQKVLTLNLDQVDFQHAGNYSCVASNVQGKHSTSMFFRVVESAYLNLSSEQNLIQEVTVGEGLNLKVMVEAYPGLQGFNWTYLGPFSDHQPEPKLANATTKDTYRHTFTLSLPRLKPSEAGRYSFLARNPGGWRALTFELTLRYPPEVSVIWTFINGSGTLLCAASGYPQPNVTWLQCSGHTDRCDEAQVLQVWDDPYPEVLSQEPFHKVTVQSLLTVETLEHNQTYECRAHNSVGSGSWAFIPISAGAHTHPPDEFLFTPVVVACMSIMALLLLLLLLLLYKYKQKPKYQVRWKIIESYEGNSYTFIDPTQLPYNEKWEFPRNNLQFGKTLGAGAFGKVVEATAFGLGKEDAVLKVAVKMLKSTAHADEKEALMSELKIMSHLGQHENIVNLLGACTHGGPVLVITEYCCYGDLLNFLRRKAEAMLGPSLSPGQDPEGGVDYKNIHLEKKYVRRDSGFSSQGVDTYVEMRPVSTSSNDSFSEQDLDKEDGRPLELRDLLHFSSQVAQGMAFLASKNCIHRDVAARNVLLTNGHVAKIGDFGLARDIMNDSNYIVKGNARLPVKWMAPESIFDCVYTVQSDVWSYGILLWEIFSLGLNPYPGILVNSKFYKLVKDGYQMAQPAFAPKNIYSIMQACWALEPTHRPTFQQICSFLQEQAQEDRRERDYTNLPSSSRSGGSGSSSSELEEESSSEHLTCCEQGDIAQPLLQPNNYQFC
Sequence of CYP3A4(BQ) (P08684 whole entry): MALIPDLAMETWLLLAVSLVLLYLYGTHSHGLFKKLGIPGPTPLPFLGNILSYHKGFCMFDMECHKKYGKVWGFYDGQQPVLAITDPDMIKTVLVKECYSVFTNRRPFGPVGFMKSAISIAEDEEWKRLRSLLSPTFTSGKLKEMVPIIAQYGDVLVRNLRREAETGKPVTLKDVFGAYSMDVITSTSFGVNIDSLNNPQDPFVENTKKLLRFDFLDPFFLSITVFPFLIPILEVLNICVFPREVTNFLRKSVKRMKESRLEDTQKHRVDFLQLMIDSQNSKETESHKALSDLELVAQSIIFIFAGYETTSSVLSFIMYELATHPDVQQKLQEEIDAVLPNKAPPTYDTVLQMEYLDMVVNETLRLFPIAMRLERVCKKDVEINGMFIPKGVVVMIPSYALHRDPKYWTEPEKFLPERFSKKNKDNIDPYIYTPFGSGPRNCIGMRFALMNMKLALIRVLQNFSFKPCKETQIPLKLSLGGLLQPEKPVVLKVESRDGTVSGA
Sequence of CYP2D6 (P10635 whole entry): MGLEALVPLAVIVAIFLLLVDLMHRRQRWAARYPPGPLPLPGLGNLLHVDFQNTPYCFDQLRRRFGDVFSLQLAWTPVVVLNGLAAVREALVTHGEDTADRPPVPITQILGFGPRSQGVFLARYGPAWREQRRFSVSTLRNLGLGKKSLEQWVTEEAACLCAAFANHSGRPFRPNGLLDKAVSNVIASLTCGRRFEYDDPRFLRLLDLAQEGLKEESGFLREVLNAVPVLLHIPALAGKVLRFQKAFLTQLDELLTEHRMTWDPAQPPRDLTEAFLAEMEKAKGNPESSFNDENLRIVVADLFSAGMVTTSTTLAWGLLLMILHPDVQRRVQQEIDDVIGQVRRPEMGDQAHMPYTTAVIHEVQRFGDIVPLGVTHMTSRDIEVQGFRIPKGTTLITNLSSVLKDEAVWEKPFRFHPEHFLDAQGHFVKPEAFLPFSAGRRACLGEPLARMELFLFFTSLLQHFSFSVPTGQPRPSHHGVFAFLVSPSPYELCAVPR

For `CC(C)Nc1ncnc2[nH]cc(C(=O)c3ccc(NC4CCCCC4)nc3F)c12` [Compound P-4101, [6-(cyclohexylamino)-2-fluoro-3-pyridyl]-[4-(isopropylamino)-7H-pyrrolo[2,3-d]pyrimidin-5-yl]methanone], the pIC50 (Fms kinase) was > 7.00, the pIC50 (CYP3A4(BQ)) was < 5.00 and the pIC50 (CYP2D6) was < 5.00. The pIC50 (CYP1A2) was < 5.00, the “turbidity threshold (L, M, H) 1.4” value [1] was “M (moderate solubility if the threshold concentration is 31.3 μM to 250 μM)” and the “turbidity threshold (L, M, H) 4.5” value [1] was “L (low solubility if the threshold concentration is <31.3 μM)”. For the same molecule, the “turbidity threshold (L, M, H) 6.8” value [1] was “L (low solubility if the threshold concentration is <31.3 μM)” and the “turbidity threshold (L, M, H) 7.4” value [1] was “L (low solubility if the threshold concentration is <31.3 μM)”.
For `CNc1ncnc2[nH]cc(C(=O)c3ccc(NC4CCCCC4)nc3F)c12` [Compound P-4102, [6-(cyclohexylamino)-2-fluoro-3-pyridyl]-[4-(methylamino)-7H-pyrrolo[2,3-d]pyrimidin-5-yl]methanone], the pIC50 (Fms kinase) was > 7.00, the pIC50 (CYP3A4(BQ)) was < 5.00 and the pIC50 (CYP2D6) was > 5.30. The pIC50 (CYP1A2) was > 5.30, the “turbidity threshold (L, M, H) 1.4” value [1] was “H (high solubility if the threshold concentration is >250 μm)” and the “turbidity threshold (L, M, H) 4.5” value [1] was “M (moderate solubility if the threshold concentration is 31.3 μM to 250 μM)”. The “turbidity threshold (L, M, H) 6.8” value [1] was “M (moderate solubility if the threshold concentration is 31.3 μM to 250 μM)” and the “turbidity threshold (L, M, H) 7.4” value [1] was “M (moderate solubility if the threshold concentration is 31.3 μM to 250 μM)”.
For `COc1cncc(Nc2ccc(C(=O)c3c[nH]c4ncnc(NCC(F)(F)F)c34)c(F)n2)c1` [Compound P-4103, [2-fluoro-6-[(5-methoxy-3-pyridyl)amino]-3-pyridyl]-[4-(2,2,2-trifluoroethylamino)-7H-pyrrolo[2,3-d]pyrimidin-5-yl]methanone], the pIC50 (Fms kinase) was > 6.00, the pIC50 (CYP3A4(BQ)) was < 5.00 and the pIC50 (CYP2D6) was < 5.00. The pIC50 (CYP1A2) was > 5.30, the “turbidity threshold (L, M, H) 1.4” value [1] was “L (low solubility if the threshold concentration is <31.3 μM)” and the “turbidity threshold (L, M, H) 4.5” value [1] was “M (moderate solubility if the threshold concentration is 31.3 μM to 250 μM)”. The “turbidity threshold (L, M, H) 6.8” value [1] was “M (moderate solubility if the threshold concentration is 31.3 μM to 250 μM)” and the “turbidity threshold (L, M, H) 7.4” value [1] was “M (moderate solubility if the threshold concentration is 31.3 μM to 250 μM)”.
In the case of `COc1cncc(Nc2ccc(C(=O)c3c[nH]c4ncnc(NC5CCCCC5)c34)c(F)n2)c1` [Compound P-4104, [4-(cyclohexylamino)-7H-pyrrolo[2,3-d]pyrimidin-5-yl]-[2-fluoro-6-[(5-methoxy-3-pyridyl)amino]-3-pyridyl]methanone], the pIC50 (Fms kinase) was > 6.00, the pIC50 (CYP3A4(BQ)) was < 5.00 and the pIC50 (CYP2D6) was < 5.00. For the same molecule, the pIC50 (CYP1A2) was < 5.00, the “turbidity threshold (L, M, H) 1.4” value [1] was “M (moderate solubility if the threshold concentration is 31.3 μM to 250 μM)” and the “turbidity threshold (L, M, H) 4.5” value [1] was “L (low solubility if the threshold concentration is <31.3 μM)”. The “turbidity threshold (L, M, H) 6.8” value [1] was “L (low solubility if the threshold concentration is <31.3 μM)” and the “turbidity threshold (L, M, H) 7.4” value [1] was “L (low solubility if the threshold concentration is <31.3 μM)”.
In the case of `CCCNc1ncnc2[nH]cc(C(=O)c3ccc(Nc4cncc(OC)c4)nc3F)c12` [Compound P-4105, [2-fluoro-6-[(5-methoxy-3-pyridyl)amino]-3-pyridyl]-[4-(propylamino)-7H-pyrrolo[2,3-d]pyrimidin-5-yl]methanone], the pIC50 (Fms kinase) was > 7.00, the pIC50 (CYP3A4(BQ)) was < 5.00 and the pIC50 (CYP2D6) was < 5.00. The pIC50 (CYP1A2) was < 5.00, the “turbidity threshold (L, M, H) 1.4” value [1] was “M (moderate solubility if the threshold concentration is 31.3 μM to 250 μM)” and the “turbidity threshold (L, M, H) 4.5” value [1] was “M (moderate solubility if the threshold concentration is 31.3 μM to 250 μM)”. The “turbidity threshold (L, M, H) 6.8” value [1] was “M (moderate solubility if the threshold concentration is 31.3 μM to 250 μM)” and the “turbidity threshold (L, M, H) 7.4” value [1] was “M (moderate solubility if the threshold concentration is 31.3 μM to 250 μM)”.
With `COc1cncc(Nc2ccc(C(=O)c3c[nH]c4ncnc(NC(C)C)c34)c(F)n2)c1` [Compound P-4106, [2-fluoro-6-[(5-methoxy-3-pyridyl)amino]-3-pyridyl]-[4-(isopropylamino)-7H-pyrrolo[2,3-d]pyrimidin-5-yl]methanone] the pIC50 (Fms kinase) was > 7.00, the pIC50 (CYP3A4(BQ)) was < 5.00 and the pIC50 (CYP2D6) was > 5.30. The pIC50 (CYP1A2) was > 5.30, the “turbidity threshold (L, M, H) 1.4” value [1] was “M (moderate solubility if the threshold concentration is 31.3 μM to 250 μM)” and the “turbidity threshold (L, M, H) 4.5” value [1] was “M (moderate solubility if the threshold concentration is 31.3 μM to 250 μM)”. For the same molecule, the “turbidity threshold (L, M, H) 6.8” value [1] was “L (low solubility if the threshold concentration is <31.3 μM)” and the “turbidity threshold (L, M, H) 7.4” value [1] was “M (moderate solubility if the threshold concentration is 31.3 μM to 250 μM)”.
For `COc1cncc(Nc2ccc(C(=O)c3c[nH]c4ncnc(NC5CC5)c34)c(F)n2)c1` [Compound P-4107, [4-(cyclopropylamino)-7H-pyrrolo[2,3-d]pyrimidin-5-yl]-[2-fluoro-6-[(5-methoxy-3-pyridyl)amino]-3-pyridyl]methanone], the pIC50 (Fms kinase) was > 7.00, the pIC50 (CYP3A4(BQ)) was < 5.00 and the pIC50 (CYP2D6) was > 5.30. For the same molecule, the pIC50 (CYP1A2) was > 5.30, the “turbidity threshold (L, M, H) 1.4” value [1] was “M (moderate solubility if the threshold concentration is 31.3 μM to 250 μM)” and the “turbidity threshold (L, M, H) 4.5” value [1] was “M (moderate solubility if the threshold concentration is 31.3 μM to 250 μM)”. For the same molecule, the “turbidity threshold (L, M, H) 6.8” value [1] was “M (moderate solubility if the threshold concentration is 31.3 μM to 250 μM)” and the “turbidity threshold (L, M, H) 7.4” value [1] was “M (moderate solubility if the threshold concentration is 31.3 μM to 250 μM)”.
For `CNc1ncnc2[nH]cc(C(=O)c3ccc(Nc4cncc(OC)c4)nc3F)c12` [Compound P-4108, [2-fluoro-6-[(5-methoxy-3-pyridyl)amino]-3-pyridyl]-[4-(methylamino)-7H-pyrrolo[2,3-d]pyrimidin-5-yl]methanone], the pIC50 (Fms kinase) was > 7.00, the pIC50 (CYP3A4(BQ)) was < 5.00 and the pIC50 (CYP2D6) was > 5.30. The pIC50 (CYP1A2) was > 5.30, the “turbidity threshold (L, M, H) 1.4” value [1] was “H (high solubility if the threshold concentration is >250 μm)” and the “turbidity threshold (L, M, H) 4.5” value [1] was “M (moderate solubility if the threshold concentration is 31.3 μM to 250 μM)”. The “turbidity threshold (L, M, H) 6.8” value [1] was “M (moderate solubility if the threshold concentration is 31.3 μM to 250 μM)” and the “turbidity threshold (L, M, H) 7.4” value [1] was “M (moderate solubility if the threshold concentration is 31.3 μM to 250 μM)”.
For `CC(C)Nc1ncnc2[nH]cc(C(=O)c3ccc(NC4CCCCC4)nc3Cl)c12` [Compound P-4109, [2-chloro-6-(cyclohexylamino)-3-pyridyl]-[4-(isopropylamino)-7H-pyrrolo[2,3-d]pyrimidin-5-yl]methanone], the pIC50 (Fms kinase) was > 7.00, the pIC50 (CYP3A4(BQ)) was < 5.00 and the pIC50 (CYP2D6) was < 5.00. The pIC50 (CYP1A2) was < 5.00, the “turbidity threshold (L, M, H) 1.4” value [1] was “L (low solubility if the threshold concentration is <31.3 μM)” and the “turbidity threshold (L, M, H) 4.5” value [1] was “L (low solubility if the threshold concentration is <31.3 μM)”. For the same molecule, the “turbidity threshold (L, M, H) 6.8” value [1] was “L (low solubility if the threshold concentration is <31.3 μM)” and the “turbidity threshold (L, M, H) 7.4” value [1] was “L (low solubility if the threshold concentration is <31.3 μM)”.
With `CNc1ncnc2[nH]cc(C(=O)c3ccc(NC4CCCCC4)nc3Cl)c12` [Compound P-4110, [2-chloro-6-(cyclohexylamino)-3-pyridyl]-[4-(methylamino)-7H-pyrrolo[2,3-d]pyrimidin-5-yl]methanone] the pIC50 (Fms kinase) was > 7.00, the pIC50 (CYP3A4(BQ)) was < 5.00 and the pIC50 (CYP2D6) was > 5.30. For the same molecule, the pIC50 (CYP1A2) was > 5.30, the “turbidity threshold (L, M, H) 1.4” value [1] was “M (moderate solubility if the threshold concentration is 31.3 μM to 250 μM)” and the “turbidity threshold (L, M, H) 4.5” value [1] was “L (low solubility if the threshold concentration is <31.3 μM)”. For the same molecule, the “turbidity threshold (L, M, H) 6.8” value [1] was “L (low solubility if the threshold concentration is <31.3 μM)” and the “turbidity threshold (L, M, H) 7.4” value [1] was “L (low solubility if the threshold concentration is <31.3 μM)”.
